Among the data in patent US9714249B2 (Novartis AG, priority 2013, dated 2017) are IC50 values, retold here.

The assay has as its target BRD4-NUT-fusion (Homo sapiens (Human), UniProt O60885+Q86Y26). Kind of assay: Nut-foci formation assay (HCS) in HCC2494 NUT midline carcinoma cells. The following applies: 24 hours, nuclear BRD4-NUT foci, immunofluorescence. In kind it is cell-based. On the procedure:
Compound-mediated inhibition of BRD4 activity was monitored by quantification of the number and intensity of nuclear BRD4-NUT foci using automated immunofluorescence microscopy. Briefly, 5000 cells in 20 μl fresh medium were seeded into Poly-D-Lysine-precoated 384-well plates and incubated overnight at 37° C. and 5% CO2, followed by addition of 5 μl medium containing compound dilutions at 5-fold their final intended concentration. Dose-response effects were assessed by 3-fold serial dilutions of the test compound, starting at 10 μM. […] Assay plates were imaged using the appropriate filter sets on the Cellomics VTi automated fluorescence microscopy platform (ThermoFisher Scientific) and the population average of the number of NUT-foci per nucleus is quantified using the Cellomics Spot Detection BioApplication image analysis algorithm (ThermoFisher Scientific). The effect of a particular test compound concentration on NUT-foci number and intensity is expressed as percentage of the value obtained for cells treated with vehicle only (DMSO, 0.1% final concentration), which was set as 100.

In the case of `Cc1cc(N2C(=O)c3c(C4CC4)nn(C)c3C2c2ccc(Cl)cc2)cn(C)c1=O` (stereo not shown) [Example 1, 6-(4-chlorophenyl)-3-cyclopropyl-5-(1,5-dimethyl-6-oxo-1,6-dihydropyridin-3-yl)-1-methyl-5,6-dihydropyrrolo[3,4-c]pyrazol-4(1H)-one], the IC50 – broadly, the concentration that gives 50% inhibition – came to 33.3 nM.

In the case of `CNC1=C(C(=N)C2CC2)C(=O)N(c2cc(C)c(=O)n(C)c2)[C@@H]1c1ccc(Cl)cc1` [Example 2], the half-inhibitory concentration (IC50) amounted to 20.1 nM. With `Cc1cc(N2C(=O)c3c(C4CC4)nn(CCO)c3C2c2ccc(Cl)cc2)cn(C)c1=O` (stereo not shown) [Example 3, 6-(4-chlorophenyl)-3-cyclopropyl-5-(1,5-dimethyl-6-oxo-1,6-dihydropyridin-3-yl)-1-(2-hydroxyethyl)-5,6-dihydropyrrolo[3,4-c]pyrazol-4(1H)-one] the figure was 49 nM; with `COCCn1nc(C2CC2)c2c1C(c1ccc(Cl)cc1)N(c1cc(C)c(=O)n(C)c1)C2=O` (stereo not shown) [Example 4, 6-(4-chlorophenyl)-3-cyclopropyl-5-(1,5-dimethyl-6-oxo-1,6-dihydropyridin-3-yl)-1-(2-methoxyethyl)-5,6-dihydropyrrolo[3,4-c]pyrazol-4(1H)-one], 29.9 nM; with `Cc1cc(N2C(=O)c3c(C4CC4)nn(-c4ccnn4C)c3C2c2ccc(Cl)cc2)cn(C)c1=O` (stereo not shown) [Example 5, 6-(4-chlorophenyl)-3-cyclopropyl-5-(1,5-dimethyl-6-oxo-1,6-dihydropyridin-3-yl)-1-(1-methyl-1H-pyrazol-5-yl)-5,6-dihydropyrrolo[3,4-c]pyrazol-4(1H)-one], 138 nM. With `Cc1[nH]nc2c1C(=O)N(c1cc(Cl)c(=O)n(C)c1)C2c1ccc(Cl)cc1` (stereo not shown) [Example 6, 5-(5-chloro-1-methyl-6-oxo-1,6-dihydropyridin-3-yl)-6-(4-chlorophenyl)-3-methyl-5,6-dihydropyrrolo[3,4-c]pyrazol-4(2H)-one], half-maximal inhibition (IC50) was put at 108 nM. `COc1ncccc1-n1nc2c(c1C)C(=O)N(c1cc(Cl)c(=O)n(C)c1)C2c1ccc(Cl)cc1` (stereo not shown) [Example 7b, 5-(5-chloro-1-methyl-6-oxo-1,6-dihydropyridin-3-yl)-6-(4-chlorophenyl)-2-(2-methoxypyridin-3-yl)-3-methyl-5,6-dihydropyrrolo[3,4-c]pyrazol-4(2H)-one] yielded a 50% inhibitory concentration (IC50) of 74.4 nM. Under `COc1ncc(-n2nc(C)c3c2C(c2ccc(Cl)cc2)N(c2cc(Cl)c(=O)n(C)c2)C3=O)cn1` (stereo not shown) [Example 8a, 5-(5-chloro-1-methyl-6-oxo-1,6-dihydropyridin-3-yl)-6-(4-chlorophenyl)-1-(2-methoxypyrimidin-5-yl)-3-methyl-5,6-dihydropyrrolo[3,4-c]pyrazol-4(1H)-one] stands 298 nM; under `COc1ncc(-n2nc3c(c2C)C(=O)N(c2cc(Cl)c(=O)n(C)c2)C3c2ccc(Cl)cc2)cn1` (stereo not shown) [Example 8b, 5-(5-chloro-1-methyl-6-oxo-1,6-dihydropyridin-3-yl)-6-(4-chlorophenyl)-2-(2-methoxypyrimidin-5-yl)-3-methyl-5,6-dihydropyrrolo[3,4-c]pyrazol-4(2H)-one], 58 nM.

In turn, `Cc1nn(C)c2c1C(=O)N(c1cc(C)c(=O)n(C)c1)C2c1ccc(Cl)cc1` (stereo not shown) [Example 10, 6-(4-chlorophenyl)-5-(1,5-dimethyl-6-oxo-1,6-dihydropyridin-3-yl)-1,3-dimethyl-5,6-dihydropyrrolo[3,4-c]pyrazol-4(1H)-one] gave a concentration for half-maximal inhibition (IC50) of 108 nM. Under `Cc1nn(C2CC2)c2c1C(=O)N(c1cc(C)c(=O)n(C)c1)C2c1ccc(Cl)cc1` (stereo not shown) [Example 11, 6-(4-chlorophenyl)-1-cyclopropyl-5-(1,5-dimethyl-6-oxo-1,6-dihydropyridin-3-yl)-3-methyl-5,6-dihydropyrrolo[3,4-c]pyrazol-4(1H)-one] stands 41.7 nM; under `Cc1nn(C(C)C)c2c1C(=O)N(c1cc(C)c(=O)n(C)c1)C2c1ccc(Cl)cc1` (stereo not shown) [Example 12, 6-(4-chlorophenyl)-5-(1,5-dimethyl-6-oxo-1,6-dihydropyridin-3-yl)-1-isopropyl-3-methyl-5,6-dihydropyrrolo[3,4-c]pyrazol-4(1H)-one], 48.4 nM. With `COc1ncccc1-c1nn(C)c2c1C(=O)N(c1cc(C)c(=O)n(C)c1)C2c1ccc(Cl)cc1` (stereo not shown) [Example 15, 6-(4-chlorophenyl)-5-(1,5-dimethyl-6-oxo-1,6-dihydropyridin-3-yl)-3-(2-methoxypyridin-3-yl)-1-methyl-5,6-dihydropyrrolo[3,4-c]pyrazol-4(1H)-one] the figure was 60.7 nM; with `COc1ncccc1-c1nn(C)c2c1C(=O)N(c1cc(C)c(=O)n(C)c1)[C@@H]2c1ccc(Cl)cc1` [Example 16, (R)-6-(4-chlorophenyl)-5-(1,5-dimethyl-6-oxo-1,6-dihydropyridin-3-yl)-3-(2-methoxypyridin-3-yl)-1-methyl-5,6-dihydropyrrolo[3,4-c]pyrazol-4(1H)-one], 60.6 nM; with `COc1ncccc1-n1nc2c(c1C)C(=O)N(c1cc(C)c(=O)n(C)c1)C2c1ccc(Cl)cc1` (stereo not shown) [Example 17b, 6-(4-chlorophenyl)-5-(1,5-dimethyl-6-oxo-1,6-dihydropyridin-3-yl)-2-(2-methoxypyridin-3-yl)-3-methyl-5,6-dihydropyrrolo[3,4-c]pyrazol-4(2H)-one], 40.3 nM. `CCOc1ncccc1-n1nc2c(c1C)C(=O)N(c1cc(C)c(=O)n(C)c1)C2c1ccc(Cl)cc1` (stereo not shown) [Example 18b, 6-(4-chlorophenyl)-5-(1,5-dimethyl-6-oxo-1,6-dihydropyridin-3-yl)-2-(2-ethoxypyridin-3-yl)-3-methyl-5,6-dihydropyrrolo[3,4-c]pyrazol-4(2H)-one] returned an IC50 of 21.7 nM. Under `Cc1nn(-c2cccnc2F)c2c1C(=O)N(c1cc(C)c(=O)n(C)c1)C2c1ccc(Cl)cc1` (stereo not shown) [Example 19, 6-(4-chlorophenyl)-5-(1,5-dimethyl-6-oxo-1,6-dihydropyridin-3-yl)-1-(2-fluoropyridin-3-yl)-3-methyl-5,6-dihydropyrrolo[3,4-c]pyrazol-4(1H)-one] stands 66.7 nM; under `COc1ccc(-n2nc3c(c2C)C(=O)N(c2cc(C)c(=O)n(C)c2)C3c2ccc(Cl)cc2)cn1` (stereo not shown) [Example 20a, 6-(4-chlorophenyl)-5-(1,5-dimethyl-6-oxo-1,6-dihydropyridin-3-yl)-2-(6-methoxypyridin-3-yl)-3-methyl-5,6-dihydropyrrolo[3,4-c]pyrazol-4(2H)-one], 73.6 nM. With `COc1ccc(-n2nc(C)c3c2C(c2ccc(Cl)cc2)N(c2cc(C)c(=O)n(C)c2)C3=O)cn1` (stereo not shown) [Example 20b, 6-(4-chlorophenyl)-5-(1,5-dimethyl-6-oxo-1,6-dihydropyridin-3-yl)-1-(6-methoxypyridin-3-yl)-3-methyl-5,6-dihydropyrrolo[3,4-c]pyrazol-4(1H)-one] the figure was 57.6 nM.
